In US11845730B2, “1,3-substituted cyclobutyl derivatives and uses thereof” (Novartis AG, priority 2021, dated 2023):
Structures can show the parent of a compound that is named as a salt.

Molecular target: human TRPV1 (Homo sapiens (Human), UniProt Q8NER1)
Conditions: read-out: IC50 (μM), antagonist effect against human TRPV1; CHO cells expressing human TrpV1; stimulated with 2.5 μM NADA (EC80); mean of at least three independent experiments
Experimental: Chinese Hamster Ovary (CHO) cells transfected to express human TrpV1 receptor (which are herein referred to as CHO-huTrpV1 cells), were grown in F-12 Ham's Nutrient Mixture media (HyClone SH30026.01) supplemented with 10% Fetal Bovine Serum (Invitrogen #26140-079), 1% Antibiotic/antimycotic (Invitrogen #15240-062) and 500 ug/mL geneticin (ThermoFisher scientific #1031035). Cells were grown in T-75 flasks at 37° C. incubator with 5% CO2. The cells were passaged twice a week at a ratio of 1:10 to 1:20 to maintain steady growth. For experimentation, cells were harvested at approximately 80% confluency and plated onto 384 well black cell culture plates (cat #781091, Greinier Bio-One Inc.) at 15,000 cells per well in 20 μl media and grown overnight.
The loading dye was prepared following instruction of Calcium 6 assay kit (Molecular Probes, #R8190): 10 ml buffer from bottle B was added to 1 vial of bottle A (adapted to room temperature from −20° C.) and mixed well, then 2.5 mM of fresh prepared probenecid, was added and mixed well. 20 μl/well of loading dye was added on top of the cells, and incubated at 37° C. for 1 hour 30 min.
Assay buffer preparation: 1×HBSS, 2 mM HEPES, 0.1% BSA plus 2.5 mM freshly prepared probenecid (Invitrogen, #P36400). 25 μl/well assay buffer in 384 well clear plate (cat #782281, Greiner Bio-one) was dispensed with buffer distributor (Multidrop ComB1 from Thermo Scientific). The compounds were in 384 Echo plate (cat #LPL0200, Labcyte) and the starting concentration of compound was 10 mM, then 1 to 3 serial dilution in 100% DMSO, 8 ul/well). 125 nl compounds was transferred to the 384 well plate containing 25 μl/well buffer with Echo® 555 Liquid Handler (Labcyte), such that the compound concentration was 5 fold of final concentration. The plate was shook slowly at 40 rpm/min for 10 min to mix. 10 μl of 5 fold compound in the buffer was transferred to the cell plate (containing 20 μl cells and 20 μl dye) using Vertical Pipetting Station 384ST (Agilent Technologies). Six fold of final concentration of NADA (N-arachidonyl dopamine, cat #A8848, Sigma) in the assay buffer was prepared and 30 μl/well was distributed in 384 well clear plate.
After compounds were added to the cell plate with loading dye, within 10-15 minutes, cell plate and plate containing NADA was placed into the FLIPR (Fluorescent Imaging Plate Reader) instrument (Tetra System, Molecular device). The TRPV1 receptor was stimulated by application of 10 μl per well of NADA. For testing the effect of compounds for possible antagonism, 2.5 μM NADA was used at the EC80 concentration.
For determination of antagonist IC50 values (concentration of antagonist that inhibits response to NADA by 50%), at least 10 antagonist concentration were measured in triplicate. The response in the presence of the antagonist was calculated as a percentage of the control response to NADA and was plotted against the concentration of the antagonist. The IC50 was estimated by non-linear regression analysis to sigmoidal-logistic curves by HELIOS (PROD 2) system. These values were averaged (means and standard error of the mean) for at least three independent experiments.

Chain of human TRPV1 (Q8NER1 whole entry): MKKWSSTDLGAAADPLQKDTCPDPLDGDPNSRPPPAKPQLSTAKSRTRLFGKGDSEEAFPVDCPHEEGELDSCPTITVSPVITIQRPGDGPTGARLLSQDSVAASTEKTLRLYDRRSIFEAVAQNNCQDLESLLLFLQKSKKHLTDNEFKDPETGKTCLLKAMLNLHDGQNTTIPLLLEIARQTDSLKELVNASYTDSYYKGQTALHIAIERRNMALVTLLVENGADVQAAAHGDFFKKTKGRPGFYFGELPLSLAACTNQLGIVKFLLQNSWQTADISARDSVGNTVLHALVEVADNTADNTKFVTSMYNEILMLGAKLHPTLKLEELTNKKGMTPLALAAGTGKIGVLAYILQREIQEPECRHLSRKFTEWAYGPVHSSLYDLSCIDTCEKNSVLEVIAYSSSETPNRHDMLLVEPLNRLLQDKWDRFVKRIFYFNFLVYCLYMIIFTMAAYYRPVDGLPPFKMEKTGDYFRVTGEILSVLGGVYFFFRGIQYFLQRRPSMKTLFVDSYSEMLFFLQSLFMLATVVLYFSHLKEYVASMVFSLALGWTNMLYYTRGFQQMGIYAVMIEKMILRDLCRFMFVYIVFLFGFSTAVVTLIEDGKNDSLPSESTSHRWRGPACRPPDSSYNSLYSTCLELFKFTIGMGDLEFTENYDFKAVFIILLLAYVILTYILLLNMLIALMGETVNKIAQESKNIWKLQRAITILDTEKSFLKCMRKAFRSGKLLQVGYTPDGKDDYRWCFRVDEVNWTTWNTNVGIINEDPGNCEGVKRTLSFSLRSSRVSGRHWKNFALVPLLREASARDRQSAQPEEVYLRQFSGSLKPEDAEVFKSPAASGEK

Compound | IC50 [µM]
C[C@]1(NCc2c(F)ccc3cnccc23)C[C@@H](Oc2ccc(F)c(C(F)(F)F)c2)C1 [Example 68 cis, (1s,3s)-3-(4-fluoro-3-(trifluoromethyl)phenoxy)-N-((6-fluoroisoquinolin-5-yl)methyl)-1-methylcyclobutan-1-amine] | 0.333
C[C@]1(NCc2c(F)ccc3cnccc23)C[C@H](Oc2ccc(F)c(C(F)(F)F)c2)C1 [Example 68 trans, (1r,3r)-3-(4-fluoro-3-(trifluoromethyl)phenoxy)-N-((6-fluoroisoquinolin-5-yl)methyl)-1-methylcyclobutan-1-amine] | 0.0129
Nc1cc2c(CC(=O)N[C@H]3C[C@H](Oc4ccc(F)c(C(F)(F)F)c4)C3)c(F)ccc2cn1 [Example 69, 2-(3-amino-6-fluoroisoquinolin-5-yl)-N-((1r,3r)-3-(4-fluoro-3-(trifluoromethyl)phenoxy)cyclobutyl)acetamide] | 0.00015
CC(=O)NCC(O)c1cc(F)c(CN[C@H]2C[C@H](Oc3ccc(F)c(C(F)(F)F)c3)C2)c2ccncc12 (stereo partly shown) [Example 70, N-(2-(6-fluoro-5-((((1r,3r)-3-(4-fluoro-3-(trifluoromethyl)phenoxy)cyclobutyl)amino)methyl)isoquinolin-8-yl)-2-hydroxyethyl)acetamide] | 0.402
Fc1ccc2cnccc2c1CN[C@H]1C[C@H](Oc2cccc(C(F)(F)F)c2)C1 [Example 71, (1r,3r)-N-((6-fluoroisoquinolin-5-yl)methyl)-3-(3-(trifluoromethyl)phenoxy)cyclobutan-1-amine, HCl] | 0.0316
O=C(O)C(O)c1cc(F)c(CN[C@H]2C[C@H](Oc3ccc(F)c(C(F)(F)F)c3)C2)c2ccncc12 (stereo partly shown) [Example 72, 2-(6-fluoro-5-((((1r,3r)-3-(4-fluoro-3-(trifluoromethyl)phenoxy)cyclobutyl)amino)methyl)isoquinolin-8-yl)-2-hydroxyacetic acid] | 0.0521
[O-][n+]1ccc2c(CN[C@H]3C[C@H](Oc4ccc(F)c(C(F)(F)F)c4)C3)c(F)ccc2c1 [Example 73, 6-fluoro-5-((((1r,3r)-3-(4-fluoro-3-(trifluoromethyl)phenoxy)cyclobutyl)amino)methyl)isoquinoline 2-oxide] | 0.193
Nc1cc2c(CN[C@H]3C[C@H](Oc4ccc(C(F)(F)F)nc4)C3)cccc2cn1 [Example 74, 5-((((1r,3r)-3-((6-(trifluoromethyl)pyridin-3-yl)oxy)cyclobutyl)amino)methyl)isoquinolin-3-amine] | 0.995
N#Cc1ccc(O[C@H]2C[C@H](NCc3c(F)ccc4cnccc34)C2)c(F)n1 [Example 75, 6-fluoro-5-((1r,3r)-3-(((6-fluoroisoquinolin-5-yl)methyl)amino)cyclobutoxy)picolinonitrile, HCl] | 0.269
Fc1ccc2cnccc2c1CN[C@H]1C[C@H](Oc2ccc(C(F)(F)F)cc2)C1 [Example 76, (1r,3r)-N-((6-fluoroisoquinolin-5-yl)methyl)-3-(4-(trifluoromethyl)phenoxy)cyclobutan-1-amine, HCl] | 0.0277
OCCC(CO)c1cc(F)c(CN[C@H]2C[C@H](Oc3ccc(F)c(C(F)(F)F)c3)C2)c2ccncc12 (stereo partly shown) [Example 77, 2-(6-fluoro-5-((((1r,3r)-3-(4-fluoro-3-(trifluoromethyl)phenoxy)cyclobutyl)amino)methyl)isoquinolin-8-yl)butane-1,4-diol] | 0.691
Fc1ccc(CO[C@H]2C[C@H](NCc3c(F)ccc4cnccc34)C2)cc1F [Example 78, (1r,3r)-3-((3,4-difluorobenzyl)oxy)-N-((6-fluoroisoquinolin-5-yl)methyl)cyclobutan-1-amine] | 0.77
Cc1ccc(O[C@H]2C[C@H](NCc3c(F)ccc4cnccc34)C2)cc1C [Example 79, (1r,3r)-3-(3,4-dimethylphenoxy)-N-((6-fluoroisoquinolin-5-yl)methyl)cyclobutan-1-amine, HCl] | 0.147
CCOC(=O)c1ccc(O[C@H]2C[C@H](NCc3c(F)ccc4cnccc34)C2)cc1 [Example 80, ethyl 4-((1r,3r)-3-(((6-fluoroisoquinolin-5-yl)methyl)amino)cyclobutoxy)benzoate] | 0.98
CN(C)c1ccc2cnccc2c1CN[C@H]1C[C@H](Oc2ccc(F)c(C(F)(F)F)c2)C1 [Example 81, 5-((((1r,3r)-3-(4-fluoro-3-(trifluoromethyl)phenoxy)cyclobutyl)amino)methyl)-N,N-dimethylisoquinolin-6-amine, HCl] | 0.255
Fc1cc(F)cc(O[C@H]2C[C@H](NCc3c(F)ccc4cnccc34)C2)c1 [Example 82, (1r,3r)-3-(3,5-difluorophenoxy)-N-((6-fluoroisoquinolin-5-yl)methyl)cyclobutan-1-amine, HCl] | 0.169
Fc1ccc2cnccc2c1CN[C@H]1C[C@H](Oc2ccc(S(F)(F)(F)(F)F)cc2)C1 [Example 83, (1r,3r)-N-((6-fluoroisoquinolin-5-yl)methyl)-3-(4-(pentafluoro-λ^6-sulfaneyl)phenoxy)cyclobutan-1-amine, HCl] | 0.207
Cc1cc(C)cc(O[C@H]2C[C@H](NCc3c(F)ccc4cnccc34)C2)c1 [Example 84, (1r,3r)-3-(3,5-dimethylphenoxy)-N-((6-fluoroisoquinolin-5-yl)methyl)cyclobutan-1-amine, HCl] | 0.722
Fc1ccc2cnccc2c1CN[C@H]1C[C@H](Oc2ccc(C3CC3)cc2)C1 [Example 85, (1r,3r)-3-(4-cyclopropylphenoxy)-N-((6-fluoroisoquinolin-5-yl)methyl)cyclobutan-1-amine, HCl] | 0.155
N#Cc1ccc(O[C@H]2C[C@H](NCc3c(F)ccc4cnccc34)C2)cc1C(F)(F)F [Example 86, 4-((1r,3r)-3-(((6-fluoroisoquinolin-5-yl)methyl)amino)cyclobutoxy)-2-(trifluoromethyl)benzonitrile, HCl] | 0.0693
Fc1ccc(O[C@H]2C[C@H](NCc3cccc4cncnc34)C2)cc1C(F)(F)F [Example 87, (1r,3r)-3-(4-fluoro-3-(trifluoromethyl)phenoxy)-N-(quinazolin-8-ylmethyl)cyclobutan-1-amine, HCl] | 0.321
Fc1ccc2cnccc2c1CN[C@H]1C[C@H](Oc2cccc(C3CC3)c2)C1 [Example 88, (1r,3r)-3-(3-cyclopropylphenoxy)-N-((6-fluoroisoquinolin-5-yl)methyl)cyclobutan-1-amine, HCl] | 0.0952
OCc1cc(F)c(CN[C@H]2C[C@@H](Oc3ccc(F)c(C(F)(F)F)c3)C2)c2ccncc12 [Example 89, (6-fluoro-5-((((1s,3s)-3-(4-fluoro-3-(trifluoromethyl)phenoxy)cyclobutyl)amino)methyl)isoquinolin-8-yl)methanol, HCl] | 0.44
OCc1cc(F)c(CN[C@H]2C[C@H](Oc3ccnc(C(F)(F)F)c3)C2)c2ccncc12 [Example 90, (6-fluoro-5-((((1r,3r)-3-((2-(trifluoromethyl)pyridin-4-yl)oxy)cyclobutyl)amino)methyl)isoquinolin-8-yl)methanol] | 0.874
Fc1ccc(O[C@H]2C[C@H](NCc3c(F)ccc4cnccc34)C2)cc1C(F)F [Example 91, (1r,3r)-3-(3-(difluoromethyl)-4-fluorophenoxy)-N-((6-fluoroisoquinolin-5-yl)methyl)cyclobutan-1-amine, HCl] | 0.0399
